Values joined by “and” are separate entries in the source; they are usually repeats but may differ in a detail not shown here. Equal values may be shown once. Read-outs that look alike come from different tables or passages of the source.
Assays:
Assay in all cases: biochemical
Type in all cases: biochemical
[1] = target: T1, 363 human kinases (including Aurora A/B/C) (Homo sapiens, UniProt P36897); conditions: ALK5/TGFBR1, [ATP] 100 µM; for remaining activity at 0.1 µM: 100 nM; for remaining activity at 0.1 µM / remaining activity at 0.5 µM: read-out: % Enzyme Activity (relative to DMSO controls)
T1 sequence (P36897 34-503): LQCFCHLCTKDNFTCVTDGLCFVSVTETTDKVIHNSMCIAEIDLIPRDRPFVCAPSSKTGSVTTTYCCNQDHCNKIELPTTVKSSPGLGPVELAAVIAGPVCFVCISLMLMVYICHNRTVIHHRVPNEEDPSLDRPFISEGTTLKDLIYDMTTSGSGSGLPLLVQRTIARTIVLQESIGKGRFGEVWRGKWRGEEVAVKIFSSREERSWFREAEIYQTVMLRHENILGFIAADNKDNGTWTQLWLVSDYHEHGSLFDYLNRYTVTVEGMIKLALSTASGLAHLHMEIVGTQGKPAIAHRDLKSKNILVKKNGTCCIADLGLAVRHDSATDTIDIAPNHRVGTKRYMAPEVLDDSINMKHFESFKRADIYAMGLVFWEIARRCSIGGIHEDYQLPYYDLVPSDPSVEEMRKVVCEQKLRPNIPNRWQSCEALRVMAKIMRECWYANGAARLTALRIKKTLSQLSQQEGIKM
Description: (§1) However, the Aurora A/B selectivity ratios derived from our in vitro and in vivo data can be compared to prioritize inhibitors.

[2] = target: T2, 363 human kinases (including Aurora A/B/C) (Homo sapiens, UniProt Q8TD19); conditions: NEK9; for remaining activity at 0.1 µM: 100 nM; for remaining activity at 0.1 µM / remaining activity at 0.5 µM: read-out: % Enzyme Activity (relative to DMSO controls)
T2 sequence (Q8TD19 1-979): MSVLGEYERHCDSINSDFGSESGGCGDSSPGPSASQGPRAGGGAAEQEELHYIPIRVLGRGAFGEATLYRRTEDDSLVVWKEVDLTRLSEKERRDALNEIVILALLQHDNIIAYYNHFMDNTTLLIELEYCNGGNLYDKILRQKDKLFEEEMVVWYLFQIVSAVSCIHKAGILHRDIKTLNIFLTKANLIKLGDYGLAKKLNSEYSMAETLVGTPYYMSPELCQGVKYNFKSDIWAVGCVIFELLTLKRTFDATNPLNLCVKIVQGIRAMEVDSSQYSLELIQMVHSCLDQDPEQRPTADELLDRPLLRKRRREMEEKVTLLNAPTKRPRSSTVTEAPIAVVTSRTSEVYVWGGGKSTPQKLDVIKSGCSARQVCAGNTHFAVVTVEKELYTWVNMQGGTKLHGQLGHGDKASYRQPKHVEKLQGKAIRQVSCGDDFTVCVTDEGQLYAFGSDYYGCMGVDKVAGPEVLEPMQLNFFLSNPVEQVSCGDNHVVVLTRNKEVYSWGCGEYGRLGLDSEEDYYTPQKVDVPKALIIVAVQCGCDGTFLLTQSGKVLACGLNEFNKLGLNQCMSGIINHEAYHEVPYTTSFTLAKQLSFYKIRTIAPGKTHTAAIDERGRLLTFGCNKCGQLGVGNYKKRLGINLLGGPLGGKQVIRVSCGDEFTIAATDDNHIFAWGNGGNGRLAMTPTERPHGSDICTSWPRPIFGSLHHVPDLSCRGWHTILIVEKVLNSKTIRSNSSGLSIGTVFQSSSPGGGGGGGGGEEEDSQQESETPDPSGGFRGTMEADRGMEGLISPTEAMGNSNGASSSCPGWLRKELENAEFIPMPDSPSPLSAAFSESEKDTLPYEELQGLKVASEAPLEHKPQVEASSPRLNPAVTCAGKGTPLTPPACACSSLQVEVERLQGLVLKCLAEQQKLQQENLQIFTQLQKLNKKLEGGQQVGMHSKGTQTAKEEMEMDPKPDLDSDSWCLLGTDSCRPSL
Description: as §1

[3] = target: 363 human kinases (including Aurora A/B/C) (Homo sapiens, UniProt O75716); conditions: STK16; for remaining activity at 0.1 µM: 100 nM; for remaining activity at 0.1 µM / remaining activity at 0.5 µM: read-out: % Enzyme Activity (relative to DMSO controls)
Description: as §1

[4] = target: 363 human kinases (including Aurora A/B/C) (Homo sapiens, UniProt Q13882); conditions: BRK, [ATP] 100 µM; for remaining activity at 0.1 µM: 100 nM; for remaining activity at 0.1 µM / remaining activity at 0.5 µM: read-out: % Enzyme Activity (relative to DMSO controls)
Description: as §1

[5] = target: 363 human kinases (including Aurora A/B/C) (Homo sapiens, UniProt Q9Y6M4); conditions: CK1g3, [ATP] 10 µM; for remaining activity at 0.1 µM: 100 nM; for remaining activity at 0.1 µM / remaining activity at 0.5 µM: read-out: % Enzyme Activity (relative to DMSO controls)
Description: as §1

[6] = target: 363 human kinases (including Aurora A/B/C) (Homo sapiens, UniProt P35916); conditions: for remaining activity at 0.1 µM / remaining activity at 0.5 µM: read-out: % Enzyme Activity (relative to DMSO controls)
Description: as §1

[7] = target: T3, 363 human kinases (including Aurora A/B/C) (Homo sapiens, UniProt Q8TDC3); conditions: BRSK1, [ATP] 50 µM; for remaining activity at 0.1 µM: 100 nM; for remaining activity at 0.1 µM / remaining activity at 0.5 µM: read-out: % Enzyme Activity (relative to DMSO controls)
T3 sequence (Q8TDC3 1-778): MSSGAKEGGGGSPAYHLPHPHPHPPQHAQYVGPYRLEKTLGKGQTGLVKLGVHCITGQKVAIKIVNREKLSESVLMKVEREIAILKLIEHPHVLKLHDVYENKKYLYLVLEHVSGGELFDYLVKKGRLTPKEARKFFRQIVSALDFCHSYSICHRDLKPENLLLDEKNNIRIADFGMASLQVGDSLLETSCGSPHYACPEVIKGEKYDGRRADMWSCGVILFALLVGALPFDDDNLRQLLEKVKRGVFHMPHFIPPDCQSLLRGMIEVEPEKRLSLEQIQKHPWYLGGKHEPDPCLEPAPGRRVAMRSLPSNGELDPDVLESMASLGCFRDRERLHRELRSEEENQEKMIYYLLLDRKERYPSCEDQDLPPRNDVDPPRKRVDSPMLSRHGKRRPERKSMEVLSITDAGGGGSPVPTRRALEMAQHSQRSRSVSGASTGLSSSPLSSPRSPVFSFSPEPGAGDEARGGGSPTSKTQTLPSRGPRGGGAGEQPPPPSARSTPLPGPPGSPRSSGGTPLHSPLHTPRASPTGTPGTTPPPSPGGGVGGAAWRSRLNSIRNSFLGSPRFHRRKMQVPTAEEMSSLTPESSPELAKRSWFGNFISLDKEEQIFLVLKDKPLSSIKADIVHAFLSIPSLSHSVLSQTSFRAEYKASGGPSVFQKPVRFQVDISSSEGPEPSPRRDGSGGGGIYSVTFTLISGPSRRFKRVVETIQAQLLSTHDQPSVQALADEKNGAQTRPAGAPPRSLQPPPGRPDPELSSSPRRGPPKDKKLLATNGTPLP
Description: as §1

[8] = target: 363 human kinases (including Aurora A/B/C) (Homo sapiens, UniProt P07947); conditions: YES/YES1; for remaining activity at 0.1 µM: 100 nM; for remaining activity at 0.1 µM / remaining activity at 0.5 µM: read-out: % Enzyme Activity (relative to DMSO controls)
Description: as §1

[9] = target: 363 human kinases (including Aurora A/B/C) (Homo sapiens, UniProt Q76MJ5); conditions: ERN2/IRE2, [ATP] 100 µM; for remaining activity at 0.1 µM: 100 nM; for remaining activity at 0.1 µM / remaining activity at 0.5 µM: read-out: % Enzyme Activity (relative to DMSO controls)
Description: as §1

[10] = FLT4/VEGFR3, [ATP] 5 µM, 500 nM

Chain of 363 human kinases (including Aurora A/B/C) (Homo sapiens, UniProt Q13882) (Q13882 whole entry): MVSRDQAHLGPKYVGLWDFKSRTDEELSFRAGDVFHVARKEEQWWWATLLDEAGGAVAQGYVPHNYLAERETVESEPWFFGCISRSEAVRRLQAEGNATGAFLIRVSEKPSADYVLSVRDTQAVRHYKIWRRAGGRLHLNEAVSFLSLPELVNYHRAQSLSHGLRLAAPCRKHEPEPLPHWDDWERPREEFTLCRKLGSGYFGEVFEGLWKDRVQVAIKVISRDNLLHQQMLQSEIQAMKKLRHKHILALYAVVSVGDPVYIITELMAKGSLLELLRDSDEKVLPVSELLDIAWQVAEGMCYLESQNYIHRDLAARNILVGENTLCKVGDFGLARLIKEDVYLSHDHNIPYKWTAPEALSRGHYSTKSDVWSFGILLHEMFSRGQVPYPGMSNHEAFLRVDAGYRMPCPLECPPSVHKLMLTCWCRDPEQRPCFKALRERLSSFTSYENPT
Chain of 363 human kinases (including Aurora A/B/C) (Homo sapiens, UniProt P07947) (P07947 whole entry): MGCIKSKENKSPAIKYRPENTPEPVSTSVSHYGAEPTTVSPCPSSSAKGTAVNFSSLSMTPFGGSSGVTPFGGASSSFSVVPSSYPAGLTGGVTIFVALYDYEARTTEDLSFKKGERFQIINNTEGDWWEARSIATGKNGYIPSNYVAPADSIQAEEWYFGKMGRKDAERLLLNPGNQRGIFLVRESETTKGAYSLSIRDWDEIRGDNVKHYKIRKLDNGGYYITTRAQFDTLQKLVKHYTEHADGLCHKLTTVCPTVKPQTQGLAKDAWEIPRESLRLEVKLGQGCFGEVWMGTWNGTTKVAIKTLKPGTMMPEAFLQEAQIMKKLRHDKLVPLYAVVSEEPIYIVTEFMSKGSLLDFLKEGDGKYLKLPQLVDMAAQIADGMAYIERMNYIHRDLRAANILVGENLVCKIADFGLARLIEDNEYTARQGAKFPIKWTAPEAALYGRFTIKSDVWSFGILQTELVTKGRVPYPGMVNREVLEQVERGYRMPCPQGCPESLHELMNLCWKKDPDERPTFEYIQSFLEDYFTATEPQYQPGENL
Chain of 363 human kinases (including Aurora A/B/C) (Homo sapiens, UniProt P35916) (P35916 25-1363): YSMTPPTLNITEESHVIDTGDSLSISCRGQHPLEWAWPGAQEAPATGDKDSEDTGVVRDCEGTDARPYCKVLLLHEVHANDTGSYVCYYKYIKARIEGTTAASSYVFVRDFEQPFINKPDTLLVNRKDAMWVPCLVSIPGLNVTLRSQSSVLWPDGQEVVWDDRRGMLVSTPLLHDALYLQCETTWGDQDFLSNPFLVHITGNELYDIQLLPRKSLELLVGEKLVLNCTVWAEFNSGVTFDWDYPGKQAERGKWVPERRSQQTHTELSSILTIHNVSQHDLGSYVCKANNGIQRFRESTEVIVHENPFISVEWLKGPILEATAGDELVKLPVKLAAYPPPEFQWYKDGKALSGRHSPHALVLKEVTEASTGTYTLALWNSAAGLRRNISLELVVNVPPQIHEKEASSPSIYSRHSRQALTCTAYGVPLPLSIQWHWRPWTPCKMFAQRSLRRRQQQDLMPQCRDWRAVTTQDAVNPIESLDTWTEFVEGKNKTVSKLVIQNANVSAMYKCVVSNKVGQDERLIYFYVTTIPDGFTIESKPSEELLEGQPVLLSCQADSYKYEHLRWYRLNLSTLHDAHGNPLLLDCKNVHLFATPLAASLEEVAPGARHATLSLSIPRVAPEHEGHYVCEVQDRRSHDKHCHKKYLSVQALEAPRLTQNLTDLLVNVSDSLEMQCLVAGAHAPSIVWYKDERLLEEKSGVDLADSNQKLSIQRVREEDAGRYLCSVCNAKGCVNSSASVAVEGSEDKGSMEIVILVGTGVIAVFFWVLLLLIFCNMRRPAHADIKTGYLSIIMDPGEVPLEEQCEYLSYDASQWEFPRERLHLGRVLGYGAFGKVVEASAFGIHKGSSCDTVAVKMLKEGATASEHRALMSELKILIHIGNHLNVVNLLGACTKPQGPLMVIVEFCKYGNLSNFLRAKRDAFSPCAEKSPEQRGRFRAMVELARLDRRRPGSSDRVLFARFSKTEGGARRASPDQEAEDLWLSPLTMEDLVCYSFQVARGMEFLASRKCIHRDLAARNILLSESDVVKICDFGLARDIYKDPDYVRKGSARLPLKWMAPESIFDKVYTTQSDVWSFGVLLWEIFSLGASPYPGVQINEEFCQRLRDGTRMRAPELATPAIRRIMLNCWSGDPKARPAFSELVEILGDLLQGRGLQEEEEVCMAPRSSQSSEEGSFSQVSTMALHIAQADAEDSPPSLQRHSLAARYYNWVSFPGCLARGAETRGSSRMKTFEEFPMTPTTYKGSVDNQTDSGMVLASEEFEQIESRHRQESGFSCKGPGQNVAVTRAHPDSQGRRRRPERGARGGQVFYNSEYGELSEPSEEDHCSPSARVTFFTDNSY
Chain of 363 human kinases (including Aurora A/B/C) (Homo sapiens, UniProt Q76MJ5) (Q76MJ5 35-926): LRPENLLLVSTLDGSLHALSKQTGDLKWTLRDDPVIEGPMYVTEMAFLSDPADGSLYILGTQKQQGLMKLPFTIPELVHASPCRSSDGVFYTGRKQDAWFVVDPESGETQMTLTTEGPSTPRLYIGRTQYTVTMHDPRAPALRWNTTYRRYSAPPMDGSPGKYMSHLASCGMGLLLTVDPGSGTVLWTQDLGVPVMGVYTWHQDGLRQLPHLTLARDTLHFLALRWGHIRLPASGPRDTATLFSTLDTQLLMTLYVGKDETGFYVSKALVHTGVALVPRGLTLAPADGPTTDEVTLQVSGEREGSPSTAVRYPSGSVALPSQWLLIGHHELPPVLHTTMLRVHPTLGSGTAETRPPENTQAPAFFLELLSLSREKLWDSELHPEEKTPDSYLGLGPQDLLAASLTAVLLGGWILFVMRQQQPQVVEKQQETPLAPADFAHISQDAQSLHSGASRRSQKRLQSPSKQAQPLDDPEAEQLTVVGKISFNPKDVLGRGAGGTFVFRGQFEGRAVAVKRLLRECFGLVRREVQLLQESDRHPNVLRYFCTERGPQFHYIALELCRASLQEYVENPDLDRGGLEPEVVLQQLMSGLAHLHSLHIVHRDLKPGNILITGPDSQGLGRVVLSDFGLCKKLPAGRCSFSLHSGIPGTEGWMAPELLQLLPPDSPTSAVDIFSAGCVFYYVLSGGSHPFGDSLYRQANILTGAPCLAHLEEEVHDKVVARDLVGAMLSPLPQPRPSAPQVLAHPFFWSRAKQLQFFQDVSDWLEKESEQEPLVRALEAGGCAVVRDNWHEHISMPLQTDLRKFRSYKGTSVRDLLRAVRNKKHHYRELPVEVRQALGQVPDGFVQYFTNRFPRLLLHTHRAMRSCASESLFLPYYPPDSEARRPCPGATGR
Chain of 363 human kinases (including Aurora A/B/C) (Homo sapiens, UniProt O75716) (O75716 whole entry): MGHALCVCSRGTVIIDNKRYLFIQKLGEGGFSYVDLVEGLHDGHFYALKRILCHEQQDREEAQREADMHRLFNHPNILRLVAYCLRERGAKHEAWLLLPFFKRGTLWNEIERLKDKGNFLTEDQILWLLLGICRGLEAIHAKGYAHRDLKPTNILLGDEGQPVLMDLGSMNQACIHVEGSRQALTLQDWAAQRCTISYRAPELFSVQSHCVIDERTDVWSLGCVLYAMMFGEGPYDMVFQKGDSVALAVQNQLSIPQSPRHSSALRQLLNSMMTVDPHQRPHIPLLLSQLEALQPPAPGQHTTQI
Chain of 363 human kinases (including Aurora A/B/C) (Homo sapiens, UniProt Q9Y6M4) (Q9Y6M4 whole entry): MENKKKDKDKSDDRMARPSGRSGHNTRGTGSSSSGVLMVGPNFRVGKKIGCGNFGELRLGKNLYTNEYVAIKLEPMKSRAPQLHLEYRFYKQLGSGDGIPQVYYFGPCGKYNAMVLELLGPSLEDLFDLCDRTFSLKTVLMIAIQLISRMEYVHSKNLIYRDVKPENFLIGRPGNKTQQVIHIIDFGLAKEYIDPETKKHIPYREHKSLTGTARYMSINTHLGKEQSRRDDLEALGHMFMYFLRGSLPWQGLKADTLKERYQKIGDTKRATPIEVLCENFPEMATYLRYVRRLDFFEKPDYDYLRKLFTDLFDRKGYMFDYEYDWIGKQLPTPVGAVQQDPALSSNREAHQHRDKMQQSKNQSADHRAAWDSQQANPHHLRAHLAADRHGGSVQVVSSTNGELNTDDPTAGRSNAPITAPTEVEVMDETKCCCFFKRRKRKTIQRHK

`CCn1cc(-c2ccnc3[nH]c(-c4cccc(CN(C)C)c4)cc23)c(-c2ccc(NC(=O)N(C)C)cc2)n1` [GSK1070916] showed a remaining activity at 0.1 µM [1] of 106%, a remaining activity at 0.1 µM [2] of 83.8% and a remaining activity at 0.1 µM [3] of 107%. For the same molecule, the remaining activity at 0.1 µM [4] was 76.6%, the remaining activity at 0.1 µM [5] was 95% and the remaining activity at 0.1 µM [6] was 60.2% and 59.9%. The remaining activity at 0.1 µM [7] was 85.9%, the remaining activity at 0.1 µM [8] was 69.3% and the remaining activity at 0.1 µM [9] was 87.3%.

With `O=C(O)[C@]1(Cc2cccc(Nc3nccs3)n2)CC[C@@H](Oc2cccc(Cl)c2F)CC1` [MK-5108] the remaining activity at 0.1 µM [1] was 116%, the remaining activity at 0.5 µM ([1]; 500 nM) was 130% and the remaining activity at 0.1 µM [2] was 95.2%. The remaining activity at 0.5 µM ([2]; 500 nM) was 60.7%, the remaining activity at 0.1 µM [3] was 70.7% and the remaining activity at 0.5 µM ([3]; 500 nM) was 15.2%. It also gave a remaining activity at 0.1 µM [4] of 20.2%, a remaining activity at 0.5 µM ([4]; 500 nM) of 3.11% and a remaining activity at 0.1 µM [5] of 100%. It also gave a remaining activity at 0.5 µM ([5]; 500 nM) of 94.6%, a remaining activity at 0.1 µM ([6]; FLT4/VEGFR3, [ATP] 5 µM, 100 nM) of 26.2% and a remaining activity at 0.5 µM [6, 10] of 6.3%. For the same molecule, the remaining activity at 0.1 µM [7] was 95.8%, the remaining activity at 0.5 µM ([7]; 500 nM) was 82.2% and the remaining activity at 0.1 µM [8] was 31.3%. The remaining activity at 0.5 µM ([8]; 500 nM) was 9.25%, the remaining activity at 0.1 µM [9] was 97% and the remaining activity at 0.5 µM ([9]; 500 nM) was 87.6%.

In the case of `O=C(c1cccc(Cl)c1F)N1CCN(Cc2cccc(Nc3nccs3)n2)CC1` [MK-8745], the “% Enzyme Activity (relative to DMSO controls)” value ([1]; 500 nM) is reported as 109.55%, the remaining activity at 0.5 µM ([1]; 500 nM) is reported as 110% and the “% Enzyme Activity (relative to DMSO controls)” value ([2]; 500 nM) is reported as 95.13%. The remaining activity at 0.5 µM ([2]; 500 nM) was 96.6%, the “% Enzyme Activity (relative to DMSO controls)” value ([3]; 500 nM) was 70.34% and the remaining activity at 0.5 µM ([3]; 500 nM) was 71.1%. For the same molecule, the “% Enzyme Activity (relative to DMSO controls)” value ([4]; 500 nM) was 29.01%, the remaining activity at 0.5 µM ([4]; 500 nM) was 29% and the “% Enzyme Activity (relative to DMSO controls)” value ([5]; 500 nM) was 98.01%. The remaining activity at 0.5 µM ([5]; 500 nM) was 98.6%, the “% Enzyme Activity (relative to DMSO controls)” value [6, 10] was 87.71% and the remaining activity at 0.5 µM [6, 10] was 88.4%. For the same molecule, the “% Enzyme Activity (relative to DMSO controls)” value ([7]; 500 nM) was 97.71%, the remaining activity at 0.5 µM ([7]; 500 nM) was 98.2% and the “% Enzyme Activity (relative to DMSO controls)” value ([8]; 500 nM) was 33.63%. The remaining activity at 0.5 µM ([8]; 500 nM) was 34.6%, the “% Enzyme Activity (relative to DMSO controls)” value ([9]; 500 nM) was 93.54% and the remaining activity at 0.5 µM ([9]; 500 nM) was 94.5%.

— paper PMC4685510, “A Cell Biologist’s Field Guide to Aurora Kinase Inhibitors” (Frontiers in Oncology, 2015)
